From patent US20200197385A1, “THERAPEUTIC AGENT FOR CANCER CONTAINING AXL INHIBITOR AS ACTIVE INGREDIENT” (ONO PHARMACEUTICAL CO., LTD., priority 2017, published 2020)

Columns and labels:
[1] = system: human acute myeloid leukemia cell line CMK-11-5; assay: In vitro combined use test, Cell Counting Kit-8; assay type: cell-based; details: 72 hours
Procedure: A human acute myeloid leukemia cell line CMK-11-5 was prepared in an RPMI medium containing 10% FBS (10% FBS-RPMI medium) at about 30000 cells/mL, and seeded in a 96 well plate at 50 μL/well. To this, 10% FBS-RPMI medium containing ABBV-075 having 4 times higher concentration than the final concentration was added at 25 μL/well. Furthermore, 10% FBS-RPMI medium containing the compound A having 4 times higher concentration than the final concentration was added at 25 μL/well (final volume: 100 μL/well DMSO concentration: 0.2%). The plate was incubated at 37° C. in humidified air including 5% CO2 for 72 hours. After culturing, absorbance at 450 nm of a formazan product, proportional to the number of living cells, was measured using Cell Counting Kit-8. Percentage (%) of absorbance at 450 nm of each compound-treated group with respect to absorbance at 450 nm of the vehicle group was calculated.

[2] = system: leukemia cells in bone marrow derived from patient with acute myeloid leukemia; assay: Proliferation test (CFDA-SE), bone marrow sample of acute myeloid leukemia patient, compound A combined with anticancer drugs; assay type: cell-based, human; details: 96 hours, Ci<1 synergistic action
Procedure: (§1) Initial evaluation: Bone marrow samples were obtained from an adult acute myeloid leukemia patient. […] Furthermore, to evaluate the initial survival rate of cells, Annexin V was added to the above-mentioned combination of MAb.
Proliferation test: Proliferation was measured using a CFDA-SE coloring agent. A coloring agent which had been prepared in advance was placed in 15-mL tube including bone marrow enough to obtain about 6000 cells/well of living leukemia cells. Thereafter, they were diluted with the medium such that the total volume became 1 mL. After the resultant product was mixed well by vortex, the mixture was incubated on a rotator at room temperature with light shielded for 10 minutes. Then, the tube was filled with cool RPMI1640 including 10% FBS (medium 2), and incubated on ice for 5 minutes to stop the reaction. Thereafter, the cells were washed with the medium 2 twice. For the final re-suspension before plating and incubation, the medium 1 replenished with a cytokine cocktail was used. […] The plate containing the sample was incubated at 37° C. in humidified air including 5% CO2 for 96 hours. In order to prepare a sample for analysis, erythrocytes were lysed after completion of incubation, and then, the sample was stained with the best combination of Mab and Annexin V to identify the leukemia cells in the sample. Finally, the plate was analyzed by ExviTech (registered trademark) platform.
Data analysis: Synergistic analysis was carried out by calculating Combination Index (Ci) as described in Cancer Research, Vol. 70, No. 2, pp. 440-446, 2010. […] Note here that the meaning of the Ci value is regarded as follows.
(§2) Ci<1: synergistic action, Ci=1: additive action, Ci>1: antagonistic action

[3] = system: mouse pancreatic cancer cell line Pan02 orthotopic implantation model; assay: Antitumor action, orthotopic transplantation model, survival; assay type: in vivo; details: Pan02 orthotopic implantation mice; compound A 20 mg/kg/day via the diet; gemcitabine 60 mg/kg i.p. twice a week; Day 0 to Day 95
Procedure: For the compound A, mouse feed CRF-1 containing 0.013% compound A was manufactured by Oriental Yeast Co., Ltd. so as to be administered in 20 mg/kg/day as administration via the diet. Gemcitabine was obtained from Wako Pure Chemical Industries, Ltd. C57/BL6 mouse pancreatic cancer cell line Pan02 was transplanted into the pancreas of the same type syngeneic mice (C57/BL6, female, 6-week old (Charles River Laboratories Japan, Inc.)) to produce Pan02 orthotopic implantation mice. On day 7 after transplantation, based on the body weight, the mice were assigned to four groups, i.e., a vehicle group, a gemcitabine group, compound A group, a combined use group of gemcitabine+compound A, and the compound A (each n=8 to 9). The day on which group assignment was carried out was defined as Day 0. To the vehicle group and the compound A group, PBS (10 mL/kg, twice a week) was intraperitoneally administered. To the gemcitabine group and a combined use group of gemcitabine+compound A, gemcitabine (60 mg/10 mL/kg, twice a week) was administered by intraperitoneal administration. To the compound A group and the combined use group of gemcitabine+compound A, CRF-1 containing 0.013% compound A was fed from Day 0. From Day 0 to Day 95, the survival time of each mouse in each group was evaluated. […]

[4] = system: leukemia cells in bone marrow derived from patient with acute myeloid leukemia; assay: Reduction test, bone marrow sample of acute myeloid leukemia patient, compound A combined with anticancer drugs; assay type: cell-based, human; details: 96 hours, Ci<1 synergistic action
Procedure: as §1
The plate containing the sample was incubated at 37° C. in humidified air including 5% CO2 for 96 hours. In order to prepare a sample for analysis, erythrocytes were lysed after completion of incubation, and then, the sample was stained with the best combination of Mab and Annexin V to identify the leukemia cells in the sample. Finally, the plate was analyzed by ExviTech (registered trademark) platform.
Note here that the meaning of the Ci value is regarded as follows.
as §2

[5] = system: human acute lymphatic leukemia cell line CCRF-HSB-2; assay: In vitro combined use test, Cell Titer-Glo; assay type: cell-based; details: 72 hours
Procedure: A human acute lymphatic leukemia cell line CCRF-HSB-2 was prepared in an IMDM medium containing 10% FBS (10% FBS-IMDM medium) at about 200000 cells/mL, and seeded in a 96 well plate at 50 μL/well. […] The plate was incubated at 37° C. in humidified air including 5% CO2 for 72 hours. After culturing, relative luminescence unit (RLU), proportional to cellular endogenous ATP amount, was measured by Cell Titer-Glo Luminescent Cell Viability Assay (registered trademark). Percentage (%) of RLU of each compound-treated group relative to RLU of the vehicle group was measured.

CCS(=O)(=O)Nc1ccc(Oc2ccc(F)cc2F)c(-c2cn(C)c(=O)c3[nH]ccc23)c1 [ABBV-075]
absorbance at 450 nm in combined use with compound A compared with single use of each agent [1]: lowered

CO[C@@H]1[C@H](N(C)C(=O)c2ccccc2)C[C@H]2O[C@]1(C)n1c3ccccc3c3c4c(c5c6ccccc6n2c5c31)C(=O)NC4 [Midostaurin, midostaurin]
Ci median value in combined use with compound A [2]: 0.673

COc1cc2nccc(Oc3ccc(NC(=O)c4cc5c(n(-c6ccccc6)c4=O)CCCC5=O)nc3)c2cc1OC [Compound A, N-{5-[(6,7-dimethoxy-4-quinolinyl)oxy]-2-pyridinyl}-2,5-dioxo-1-phenyl-1,2,5,6,7,8-hexahydro-3-quinolinecarboxamide]
Median value of survival days [3]: 54 days

CCCCc1nc2cc(/C=C/C(=O)NO)ccc2n1CCN(CC)CC [Plasinostat, plasinostat]
Ci median value in combined use with compound A [4]: 0.440

COc1cccc2c1C(=O)c1c(O)c3c(c(O)c1C2=O)C[C@@](O)(C(C)=O)C[C@@H]3O[C@H]1C[C@H](N)[C@H](O)[C@H](C)O1 [Daunorubicin, daunorubicin]
Ci median value in combined use with compound A [5]: 0.936 | RLU in combined use with compound A compared with single use of each agent [5]: lowered

Nc1ccn([C@@H]2O[C@H](CO)[C@@H](O)C2(F)F)c(=O)n1 [Gemcitabine, gemcitabine]
Median value of survival days [3]: 67 days

CC[C@@H]1C(=O)N(C)c2cnc(Nc3ccc(C(=O)N[C@H]4CC[C@H](N5CCN(CC6CC6)CC5)CC4)cc3OC)nc2N1C(C)C [Volasertib, volasertib]
Ci median value in combined use with compound A [2]: 0.830

Nc1ccn([C@@H]2O[C@H](CO)[C@@H](O)[C@@H]2O)c(=O)n1 [Cytarabine, cytarabine]
Ci median value in combined use with compound A [5]: 0.696 | RLU in combined use with compound A compared with single use of each agent [5]: lowered

C[C@@H]1C[C@H]2[C@@H]3CCC4=CC(=O)C=C[C@]4(C)[C@@]3(F)[C@@H](O)C[C@]2(C)[C@@]1(O)C(=O)CO [Dexamethasone, dexamethasone]
Ci median value in combined use with compound A [5]: 0.589

CCc1nc(C(N)=O)c(Nc2ccc(N3CCC(N4CCN(C)CC4)CC3)c(OC)c2)nc1NC1CCOCC1 [Gilteritinib, gilteritinib]
Ci median value in combined use with compound A [2]: 0.495

COc1cc(C(=O)O)ccc1NC(=O)[C@@H]1N[C@@H](CC(C)(C)C)[C@](C#N)(c2ccc(Cl)cc2F)[C@H]1c1cccc(Cl)c1F [Idasanutlin, idasanutlin]
Ci median value in combined use with compound A [4]: 0.719
